Consider twelve molecules from PubChem BioAssay (NCI).

Several values for one entry are separate records, joined by “and”; a condition that tells them apart may be missing. Identical values can stand only once.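 In this assay, cells in 96-well plates receive the compound at five concentrations for 48 hours. Endpoints are linearly interpolated between the surrounding concentrations. Here, GI50 denotes the concentration required for 50% inhibition of growth. The concentration for full growth arrest is given as TGI.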 Some results are limits rather than exact numbers.

What all share (experiment): NCI-60 cell line screen, 48 h
Assay [1] concerns BT-549 breast.
For assay [2], the system named is MDA-MB-231 breast.
The subject of assay [3] is MDA-MB-435.
Assay [4] concerns SK-MEL-2 melanoma.
For assay [5], the system named is T-47D breast.
Assay [6] concerns SNB-75 CNS.
Assay [7] relates to SR leukemia.

Regarding `COc1ccc(Cl)cc1Nc1nc(C(F)(F)F)ccc1C(=O)N/N=C/c1ccc(Cl)cc1`, the GI50 was 0.108 µM in assay [1]; 5.44 µM in assay [2]; greater than 100 µM in assay [3]; 0.954 µM in assay [4]; 0.971 µM in assay [5]. The TGI in assay [1] was 0.932 µM; in assay [2], greater than 100 µM; in assay [3], greater than 100 µM; in assay [4] it was greater than 100 µM; in assay [5], greater than 100 µM.

Regarding `O=C1OC(c2ccccc2)=N/C1=C\c1ccc(N(CCCl)CCCl)cc1`, the TGI in assay [1] was greater than 100 µM; in assay [2], greater than 100 µM; in assay [3] it was greater than 100 µM; in assay [4], greater than 100 µM; in assay [6] it was greater than 100 µM; in assay [7], greater than 69.7 µM. The TGI in assay [5] is greater than 84.8 µM.

Take `Cn1c(=O)c(-c2c(Cl)cccc2Cl)cc2cnc(Nc3ccc(N4CCOCC4)cc3)nc21`: the GI50 in assay [1] is 0.109 µM; in assay [2] it was less than 0.0169 µM; in assay [4], 2.48 µM; in assay [6], less than 0.01 µM; in assay [7], 0.14 µM; in assay [5], 0.598 µM. Moreover, the TGI in assay [4] was greater than 100 µM; in assay [6] it was 0.0916 µM; in assay [7] it was 0.471 µM; in assay [5], 9.77 µM.

Consider `O=C1COc2c(CCNCCN(C(=O)CCNCCc3ccc(Cl)c(Cl)c3)C3CCCCC3)ccc(O)c2N1`, for which the GI50 in assay [1] was 14.3 µM; in assay [2], 10.5 µM; in assay [3] it was 14.9 µM; in assay [4], 17.2 µM; in assay [6] it was 3.65 µM; in assay [7] it was 12.2 µM. Moreover, the GI50 in assay [5] was 17.3 µM. Moreover, the TGI in assay [1] amounted to 29 µM; in assay [2], 25.6 µM; in assay [3], 28.5 µM; in assay [4], 34.9 µM; in assay [6] it was 19.4 µM; in assay [7], 33.7 µM. The TGI in assay [5] came to 40.1 µM.

As for `COc1ccc(C[C@H](N)C(=O)N[C@@H]2[C@@H](CO)OC(n3cnc4c(N(C)C)ncnc43)[C@@H]2O)cc1` (stereo not given in full), the GI50 in assay [1] is 0.588 µM; in assay [2] it was 0.466 µM; in assay [3] it was 0.214 µM; in assay [6], 0.143 µM; in assay [7], 0.17 µM; in assay [5] it was 0.137 µM. Besides, the TGI was 1.83 µM in assay [1]; 1.22 µM in assay [2]; 0.809 µM in assay [3]; 1.23 µM in assay [4]; 1.23 µM in assay [6]; 1.32 µM in assay [7]. In assay [5], this molecule returned a TGI of 0.565 µM.

Consider `COc1cc(-c2nn(-c3cccc(NC(=O)c4cccc(C(F)(F)F)c4)c3)cc2-c2ccncc2)ccc1Cl`, for which the GI50 in assay [1] is 2.87 µM; in assay [2], 1.24 µM; in assay [4], 1.56 µM; in assay [7] it was 0.838 µM; in assay [5], 2.55 µM. Further, the TGI in assay [1] is 46.8 µM; in assay [2], 9.96 µM; in assay [4], greater than 50 µM; in assay [7], 4.59 µM; in assay [5], greater than 50 µM.

For the molecule `Oc1ccc(/C=N/Nc2nnc(N/N=C/c3ccc(O)cc3O)c3ccccc23)c(O)c1`, the GI50 in assay [1] was 0.399 µM; in assay [2], 1.35 µM; in assay [3], 0.587 µM; in assay [4], 0.674 µM; in assay [6] it was 0.361 µM; in assay [7] it was 0.205 µM. The GI50 in assay [5] is 0.384 µM. Further, the TGI in assay [1] is 0.581 µM and 1.94 µM; in assay [2], greater than 46.2 µM; in assay [3], 3.67 µM; in assay [4] it was 0.623 µM and 2.57 µM; in assay [6] it was 1.44 µM; in assay [7], 0.592 µM and 0.719 µM. Besides, the TGI in assay [5] was 0.633 µM and 1.64 µM.

On to `O=C(Nc1cccc(C(F)(F)F)c1)Nc1ccc(OCc2nnc(-c3ccccc3)o2)c(F)c1`, for which the GI50 in assay [2] is 3.3 µM; in assay [3], 7.51 µM; in assay [4], 7.16 µM; in assay [6], 0.645 µM; in assay [7], 2.23 µM; in assay [5], 2.44 µM. In addition, the TGI in assay [2] was found to be 22.3 µM; in assay [3] it was 89.8 µM; in assay [4], 25.8 µM; in assay [6], 5.81 µM; in assay [7], 9.65 µM; in assay [5] it was 16.1 µM.

With `OCCn1c(-c2ccncc2)c(-c2ccc(F)cc2)c2ncccc21`, the GI50 in assay [1], in assay [2], in assay [3], in assay [4], in assay [6] and in assay [7] was greater than 25 µM each time. Moreover, the GI50 in assay [5] was greater than 25 µM. Further, the TGI in assay [1], in assay [2], in assay [3], in assay [4], in assay [6] and in assay [7] was greater than 25 µM throughout. Also, the TGI in assay [5] is greater than 25 µM.

As for `Cc1cccc2c1Oc1ncccc1C2NC(=O)CN(C)C` (stereo not given), the TGI in assay [1], in assay [3], in assay [4], in assay [6] and in assay [7] was greater than 10 µM each time.

Regarding `COc1cccc2c(Nc3ccc(C(=O)NCCN4CCNCC4)cc3)cc(-c3ccccc3)nc12`, the GI50 is 35.1 µM in assay [1]; 19.9 µM in assay [2]; 35.9 µM in assay [3]; 19.9 µM in assay [4]; 33.2 µM in assay [6]; 29.4 µM in assay [5]. For the same molecule, the TGI in assay [1] was greater than 100 µM; in assay [2] it was greater than 100 µM; in assay [3], greater than 100 µM; in assay [4], 51.7 µM; in assay [6], greater than 100 µM; in assay [5], greater than 100 µM.

On to `c1csc(-c2[nH]nc3c2CCc2ccccc2-3)c1`, for which the GI50 in assay [1] is 16.1 µM; in assay [2], 0.966 µM; in assay [3], 19.2 µM; in assay [4], 19.7 µM; in assay [6], 4.25 µM; in assay [7], 21.9 µM. In addition, the GI50 in assay [5] is 0.17 µM. Besides, the TGI in assay [1] worked out at 31.9 µM; in assay [2], 19.5 µM; in assay [3], 42.6 µM; in assay [4], 37.9 µM; in assay [6] it was 35 µM; in assay [7] it was 66.3 µM. The molecule further displayed a TGI in assay [5] of 0.515 µM.
